“And” between values parts separate entries of the source, which are not always exact repeats. Equal values may be shown once.

What all share (format): cell-based
Test [1] concerns Ustilago segetum var. avenae. Nature of the test: in vitro-Test with Ustilago segetum var. avenae (microtiter growth inhibition). The conditions noted are these: compound alone. The method in brief:
(§1)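 Steps: dry the compound (methanol with alkylaryl-polyglycol-ether) in each well; add potato dextrose liquid medium containing fungal spores or mycelium; record 620 nm extinction; incubate at 20° C. and 85% relative humidity; re-measure photometrically after 3-5 days. Efficacy in % against untreated wells.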

In test [2] the test system is Colletotrichum lindemuthianum. The test can be described thus: in vitro-Test with Colletotrichum lindemuthianum (microtiter growth inhibition). The conditions noted are these: for inhibition of growth at 0.04 ppm: applied alone at 0.04 ppm. The protocol: The degree of efficacy expressed in % is denoted: 0% means an efficacy, which corresponds to that of the control, while an efficacy of 100% means that no disease is observed.
If the actual fungicidal activity exceeds the calculated value, then the activity of the combination is super-additive, i.e. a synergistic effect exists. In this case, the efficacy, which was actually observed, must be greater than the value for the expected efficacy (E), that was calculated from the abovementioned formula.
Example: In Vitro-Test with Fungal Microorganisms
Wells of 96-well microtiter plates are filled with 10 μl of a preparation of test compound or compound combination in methanol+emulsifier alkylaryl-polyglycol-ether. Thereafter, the solvent is evaporated in a hood. At the next step, 100 μl of liquid potato dextrose medium is given into each well, that has been amended with an appropriate concentration of spores or mycelium suspension of the test fungus.
With the aid of a photometer, the extinction in all wells is measured at the wavelength of 620 nm.
The microtiter plates are incubated at 20° C. and 85% relative humidity. The inhibition of growth is determined again photometrically 3-5 days after the application. Efficacy is calculated in relation to the untreated control, 0% efficacy means fungal growth as high as in untreated control while 100% efficacy means no fungal growth is measured.

The test system of a further test is Parastagonospora nodorum. The test can be described thus: in vitro-Test with Parastagonospora nodorum (microtiter growth inhibition). The procedure, abridged:
as §1

The subject of a further test is Botrytis cinerea. Nature of the test: in vitro-Test with Botrytis cinerea (microtiter growth inhibition). The following applies: for inhibition of growth at 0.008 ppm: single active at 0.008 ppm; for inhibition of growth at 0.8 ppm: single active at 0.8 ppm; for Efficacy: applied alone. The method in brief:
as §1

Another test deals with Cercospora beticola. Nature of the test: in vitro-Test with Cercospora beticola (microtiter growth inhibition). The procedure, abridged:
as §1

For a further test, the system named is Alternaria alternate. The test can be described thus: in vitro-Test with Alternaria alternate (microtiter growth inhibition). The following applies: Alternaria, alone, read-out: Efficacy %. The procedure, abridged:
as §1

A further test concerns Diaporthe citri. Nature of the test: in vitro-Test with Diaporthe citri (microtiter growth inhibition). The conditions noted are these: Diaporthe citri, applied alone, read-out: Efficacy. The procedure, abridged: as §1
The subject of a further test is Fusarium culmorum. The test can be described thus: in vitro-Test with Fusarium culmorum (microtiter growth inhibition). The following applies: Fusarium culmorum, read-out: Efficacy. The procedure, abridged: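 Photometric extinction at 620 nm, measured at setup and again 3-5 days later, gives growth inhibition; 0% efficacy equals untreated-control growth, 100% means no growth. Compounds were applied in methanol/emulsifier, solvent evaporated, then spore or mycelium suspension in potato dextrose broth added; incubation at 20° C., 85% RH.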

A further test relates to Cordana musae. Nature of the test: in vitro-Test with Cordana musae (microtiter growth inhibition). The following applies: Neocordana musae, single substance, read-out: Efficacy. The method in brief:
as §1

Where [3] appears, read: Colletotrichum lindemuthianum, applied alone at 0.008 ppm, read-out: Efficacy %.
Where [4] appears, read: Colletotrichum lindemuthianum, read-out: Efficacy %.
Setting [5] is: Colletotrichum lindemuthianum, applied alone at 1.0 ppm, read-out: Efficacy %.
Setting [6] is: Parastagonospora nodorum, compound alone, read-out: Efficacy %.
[7] abbreviates: Colletotrichum lindemuthianum, applied alone at 0.2 ppm, read-out: Efficacy %.
Where [8] appears, read: Parastagonospora nodorum, compound alone, 1.0 ppm, read-out: Efficacy %.
Setting [9] is: Botrytis cinerea, read-out: Efficacy %.
The mark [10] stands for this setting: Botrytis cinerea, single active at 0.2 ppm, read-out: Efficacy %.
[11] abbreviates: Colletotrichum lindemuthianum, applied alone at 4 ppm, read-out: Efficacy %.
Where [12] appears, read: Colletotrichum lindemuthianum, applied alone at 20 ppm, read-out: Efficacy %.

`CC1COC(Cn2cncn2)(c2ccc(Oc3ccc(Cl)cc3)cc2Cl)O1` (stereo not shown) [(1.002) difenoconazole]: the inhibition of growth at 0.008 ppm was determined as 14% in [1] (0.008 ppm, read-out: Efficacy %) and 2% in [2] (setting [3]). Further, the inhibition of growth at 0.2 ppm in test [1] (0.2 ppm, read-out: Efficacy %) turned out to be 57%; in the test on Parastagonospora nodorum (setting [6]), 83%. For the same compound, the values for the inhibition of growth at 0.04 ppm (in [2] (setting [4]); with Parastagonospora nodorum (setting [6])) were 13% and 16%, respectively. Moreover, the inhibition of growth at 1 ppm in test [2] (setting [5]) was 13%. Besides, the Efficacy % is reported as 0% with Parastagonospora nodorum (compound alone, 0.008 ppm) and 97% in the test with Parastagonospora nodorum (compound alone, 1.0 ppm).
Turning to `CC(C)(C)C(O)(CCc1ccc(Cl)cc1)Cn1cncn1` (stereo not shown) [(1.021) tebuconazole], the inhibition of growth at 0.008 ppm was found to be 7% in [2] (setting [3]) and 2% with Botrytis cinerea (setting [9]). For the same compound, the inhibition of growth at 0.04 ppm is 20% in [2] (setting [4]); 10% in the test on Parastagonospora nodorum (setting [6]); 5% in the test with Botrytis cinerea (Botrytis cinerea, single active at 0.04 ppm, read-out: Efficacy %). In addition, the inhibition of growth at 0.2 ppm amounted to 2% in test [2] (setting [7]), 79% in the test on Parastagonospora nodorum (setting [6]) and 39% in the test with Botrytis cinerea (setting [10]). Further, the inhibition of growth at 1 ppm in test [2] (setting [5]) is 28%; in the test on Parastagonospora nodorum (setting [8]), 98%.
For the compound `O=C(NCCc1ncc(C(F)(F)F)cc1Cl)c1ccccc1C(F)(F)F` [(2.005) fluopyram], the inhibition of growth at 0.8 ppm was 14% in test [2] (Colletotrichum lindemuthianum, applied alone at 0.8 ppm, read-out: Efficacy %); 32% in the test on Parastagonospora nodorum (Parastagonospora nodorum, compound alone, 0.8 ppm, read-out: Efficacy %); 66% in the test with Botrytis cinerea (setting [9]). In addition, the inhibition of growth at 4 ppm was found to be 7% in [2] (setting [11]); 41% with Parastagonospora nodorum (Parastagonospora nodorum, compound alone, 4 ppm, read-out: Efficacy %); 64% with Botrytis cinerea (Botrytis cinerea, single active at 4 ppm, read-out: Efficacy %). Further, the inhibition of growth at 20 ppm is 19% in test [2] (setting [12]) and 65% in the test on Parastagonospora nodorum (Parastagonospora nodorum, compound alone, 20 ppm, read-out: Efficacy %).
As for `CC(C)c1ccc(Cl)cc1CN(C(=O)c1c(C(F)F)nn(C)c1F)C1CC1` [(2.038) isoflucypram], the Efficacy % in test [1] (0.008 ppm) was 7%; in [1] (0.2 ppm) it was 100% and 98%; in test [1] (1.0 ppm), 100%; in [2] (applied alone at 0.008 ppm), 15% and 8%; in test [2] (applied alone at 1.0 ppm) it was 5%; in the test with Botrytis cinerea (single active at 0.04 ppm) it was 43% and 57%. For the same compound, the Efficacy % was 63% and 75% in the test with Botrytis cinerea (single active at 0.2 ppm); 83% and 87% in the test on Botrytis cinerea (single active at 1.0 ppm).
As to `CON=C(C(=O)OC)c1ccccc1CON=C(C)c1cccc(C(F)(F)F)c1` [(3.020) trifloxystrobin], the inhibition of growth at 0.2 ppm in test [1] (0.2 ppm, read-out: Efficacy %) is 53%; in test [2] (setting [7]), 78%; in the test with Parastagonospora nodorum (setting [6]), 75%; in the test with Botrytis cinerea (setting [10]), 3%. For the same compound, the inhibition of growth at 1 ppm worked out at 82% in test [1] (1.0 ppm, read-out: Efficacy %); 79% in test [2] (setting [5]); 83% in the test on Parastagonospora nodorum (setting [8]); 14% with Botrytis cinerea (Botrytis cinerea, single active at 1.0 ppm, read-out: Efficacy %). Also, the inhibition of growth at 0.008 ppm in [2] (setting [3]) turned out to be 27%; in the test on Parastagonospora nodorum (Parastagonospora nodorum, compound alone, 0.008 ppm, read-out: Efficacy %), 36%; in the test on Botrytis cinerea (setting [9]), 0%. Further, the inhibition of growth at 0.04 ppm in test [2] (setting [4]) was 56%; with Parastagonospora nodorum (setting [6]) it was 61%. Also, in test [2] (applied alone at 0.2 ppm), the Efficacy % was 77%.
For the compound `CCO[PH](=O)[O-].CCO[PH](=O)[O-].CCO[PH](=O)[O-].[Al+3]` [(15.012) fosetyl-aluminium], the Efficacy % came out at 0% in test [2] (applied alone at 0.8 ppm); 7% in test [2] (applied alone at 4 ppm); 0% in test [2] (applied alone at 20 ppm); 53% in test [2] (applied alone at 100 ppm); 0% with Cercospora beticola (applied alone at 0.8 ppm); 0% in the test with Cercospora beticola (applied alone at 4 ppm). In addition, the Efficacy % is on record as 4% in the test on Cercospora beticola (applied alone at 20 ppm); 15% in the test with Cercospora beticola (applied alone at 100 ppm); 0% in the test with Parastagonospora nodorum (compound alone, 0.8 ppm); 2% with Parastagonospora nodorum (compound alone, 4 ppm).
On to `COc1cc(C)c(C(=O)c2c(OC)ccc(Br)c2C)c(OC)c1OC` [(15.016) metrafenone], for which the inhibition of growth at 4 ppm was determined as 15% in test [2] (setting [11]) and 13% in the test on Cercospora beticola (Cercospora beticola, applied alone at 4 ppm, read-out: Efficacy %). Further, the inhibition of growth at 20 ppm in test [2] (setting [12]) was determined as 10%. The inhibition of growth at 0.8 ppm came out at 0% in the test on Cercospora beticola (Cercospora beticola, applied alone at 0.8 ppm, read-out: Efficacy %) and 0% with Botrytis cinerea (setting [9]).
For the compound `Cc1ccc(C(F)(F)CNC(=O)c2c(Oc3cccc(C4CC4)c3F)nnc(Cl)c2C)c(C)c1` [Compound I-655, 6-chloro-3-(3-cyclopropyl-2-fluorophenoxy)-N-[2-(2,4-dimethylphenyl)-2,2-difluoroethyl]-5-methylpyridazine-4-carboxamide], the inhibition of growth at 0.004 ppm worked out at 7% in [1] (0.004 ppm, read-out: Efficacy %); 0% in [2] (Colletotrichum lindemuthianum, applied alone at 0.004 ppm, read-out: Efficacy %); 0% in the test with Alternaria alternate (0.004 ppm); 0% in the test on Diaporthe citri (0.004 ppm); 0% with Fusarium culmorum (0.004 ppm); 2% in the test on Cordana musae (0.004 ppm). Moreover, the inhibition of growth at 0.004 ppm in the test with Parastagonospora nodorum (Parastagonospora nodorum, compound alone, 0.004 ppm, read-out: Efficacy %) was 0%. Further, the inhibition of growth at 0.02 ppm in test [1] (0.020 ppm, read-out: Efficacy %) was determined as 6%; in test [2] (Colletotrichum lindemuthianum, applied alone at 0.020 ppm, read-out: Efficacy %) it was 20%; with Alternaria alternate (0.02 ppm) it was 0%; with Diaporthe citri (0.020 ppm), 0%; in the test with Fusarium culmorum (0.020 ppm) it was 7%; in the test on Cordana musae (0.020 ppm), 4%. In addition, the inhibition of growth at 0.02 ppm in the test on Parastagonospora nodorum (Parastagonospora nodorum, compound alone, 0.020 ppm, read-out: Efficacy %) was found to be 0%. Besides, the inhibition of growth at 0.1 ppm in test [1] (0.1 ppm, read-out: Efficacy %) came out at 0%; in test [2] (Colletotrichum lindemuthianum, applied alone at 0.1 ppm, read-out: Efficacy %), 98%; in the test on Alternaria alternate (0.1 ppm), 20%; with Diaporthe citri (0.1 ppm) it was 13%; with Fusarium culmorum (0.1 ppm), 7%; in the test with Cordana musae (0.1 ppm), 100%. Further, the inhibition of growth at 0.1 ppm in the test with Parastagonospora nodorum (Parastagonospora nodorum, compound alone, 0.1 ppm, read-out: Efficacy %) stood at 41%. Further, the inhibition of growth at 0.5 ppm in [1] (0.5 ppm, read-out: Efficacy %) turned out to be 0%; in [2] (Colletotrichum lindemuthianum, applied alone at 0.5 ppm, read-out: Efficacy %), 100%; with Alternaria alternate (0.5 ppm), 100%; in the test with Diaporthe citri (0.5 ppm) it was 100%; in the test on Fusarium culmorum (0.5 ppm) it was 19%; in the test on Cordana musae (0.5 ppm) it was 100%. Moreover, the inhibition of growth at 0.5 ppm in the test with Parastagonospora nodorum (Parastagonospora nodorum, compound alone, 0.5 ppm, read-out: Efficacy %) was determined as 100%. Further, the Efficacy with Parastagonospora nodorum (0.004 ppm) turned out to be 0%; with Parastagonospora nodorum (0.020 ppm), 0%; with Parastagonospora nodorum (0.1 ppm) it was 41%; in the test with Parastagonospora nodorum (0.5 ppm), 100%; in the test with Botrytis cinerea (0.004 ppm), 0%; in the test on Botrytis cinerea (0.020 ppm), 0%. For the same compound, the Efficacy with Botrytis cinerea (0.1 ppm) turned out to be 58%; in the test on Botrytis cinerea (0.5 ppm), 100%.
